Measurements taken from ChEMBL document CHEMBL4177748, “Synthesis, structure-activity relationships, and mechanistic studies of 5-arylazo-tropolone derivatives as novel xanthine oxidase (XO) inhibitors” (Bioorg Med Chem, 2018).

Molecular target: Xanthine dehydrogenase/oxidase (Bos taurus, UniProt P80457)
Experiment: Inhibition of bovine milk xanthine oxidase using xanthine as substrate pretreated for 15 mins followed by substrate addition measured after 8 mins; call rule not given here

Xanthine dehydrogenase/oxidase, sequence (P80457 whole entry): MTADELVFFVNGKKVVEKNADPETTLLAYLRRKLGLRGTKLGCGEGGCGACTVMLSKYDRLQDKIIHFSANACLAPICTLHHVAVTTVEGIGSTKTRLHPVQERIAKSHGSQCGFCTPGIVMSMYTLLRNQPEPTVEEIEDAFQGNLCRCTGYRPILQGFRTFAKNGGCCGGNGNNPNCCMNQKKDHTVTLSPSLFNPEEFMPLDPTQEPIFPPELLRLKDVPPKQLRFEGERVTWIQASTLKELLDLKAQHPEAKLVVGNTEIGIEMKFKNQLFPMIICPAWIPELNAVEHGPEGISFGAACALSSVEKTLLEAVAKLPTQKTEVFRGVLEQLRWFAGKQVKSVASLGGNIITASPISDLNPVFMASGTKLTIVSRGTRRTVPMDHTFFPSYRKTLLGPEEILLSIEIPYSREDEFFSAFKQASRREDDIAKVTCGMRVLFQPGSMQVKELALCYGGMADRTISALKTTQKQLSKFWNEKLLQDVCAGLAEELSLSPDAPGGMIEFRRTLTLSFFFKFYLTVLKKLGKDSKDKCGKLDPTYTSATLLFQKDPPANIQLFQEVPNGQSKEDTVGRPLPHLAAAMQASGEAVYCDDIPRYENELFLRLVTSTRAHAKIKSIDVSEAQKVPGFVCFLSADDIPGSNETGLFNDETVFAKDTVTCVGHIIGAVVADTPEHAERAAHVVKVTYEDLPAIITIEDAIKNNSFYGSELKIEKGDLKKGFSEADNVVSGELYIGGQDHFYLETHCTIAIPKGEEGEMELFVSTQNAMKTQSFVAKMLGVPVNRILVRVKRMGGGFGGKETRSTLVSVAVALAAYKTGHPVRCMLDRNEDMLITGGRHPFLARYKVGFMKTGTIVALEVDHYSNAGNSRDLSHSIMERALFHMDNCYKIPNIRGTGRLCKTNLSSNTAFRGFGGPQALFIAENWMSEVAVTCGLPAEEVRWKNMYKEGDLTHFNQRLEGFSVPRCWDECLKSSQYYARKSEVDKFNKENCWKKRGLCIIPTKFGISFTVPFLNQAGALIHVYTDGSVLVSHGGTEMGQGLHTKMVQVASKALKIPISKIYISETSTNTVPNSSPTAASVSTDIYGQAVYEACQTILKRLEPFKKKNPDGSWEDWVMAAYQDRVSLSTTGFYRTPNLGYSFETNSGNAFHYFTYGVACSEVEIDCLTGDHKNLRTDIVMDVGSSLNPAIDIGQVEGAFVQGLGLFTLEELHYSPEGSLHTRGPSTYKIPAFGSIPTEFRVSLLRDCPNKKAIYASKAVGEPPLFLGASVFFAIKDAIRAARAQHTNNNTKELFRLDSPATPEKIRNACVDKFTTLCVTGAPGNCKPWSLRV

Row | Structure (SMILES) | IC50 | IC50 (read-out: IC50) [µM]
1 | Cc1cccc(/N=N/c2ccc(O)c(=O)cc2)c1 | Not Active | 
2 | O=c1ccc(/N=N/c2cccc(F)c2)ccc1O |  | 8.9
3 | COC(=O)c1cccc(/N=N/c2ccc(O)c(=O)cc2)c1 |  | 80
4 | O=c1ccc(/N=N/c2cccc(Br)c2)ccc1O | Not Active | 
5 | O=c1ccc(/N=N/c2ccc(F)cc2)ccc1O | Not Active | 
6 | Cc1ccc(Br)cc1/N=N/c1ccc(O)c(=O)cc1 | Not Active | 
7 | O=c1ccc(/N=N/c2cccc(Cl)c2)ccc1O |  | 17
8 | COc1ccc(/N=N/c2cc(C(F)(F)F)cc(C(F)(F)F)c2)ccc1=O | Not Active | 
9 | COc1cc(/N=N/c2ccc(O)c(=O)cc2)cc(OC)c1OC |  | 57
10 | O=c1ccc(/N=N/c2cccc(C(F)(F)F)c2)ccc1O |  | 7.4
11 | COc1cccc(/N=N/c2ccc(O)c(=O)cc2)c1 |  | 45
12 | Cc1c(/N=N/c2ccc(O)c(=O)cc2)cccc1[N+](=O)[O-] |  | 23
13 | Cc1cc(C)cc(/N=N/c2ccc(O)c(=O)cc2)c1 | Not Active | 
14 | O=c1ccc(/N=N/c2cccc(I)c2)ccc1O | Not Active | 
15 | CCOC(=O)c1ccc(/N=N/c2ccc(O)c(=O)cc2)cc1 | Not Active | 
